Assay results: the supplement of paper PMC10949913

How the values were obtained:
Details in all cases: 48 h
CU-ACC1 [1] = assay: AC50 viability; higher = less potent
Method in brief: (§1)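 Concentration-response curves were fitted to obtain AC50 and area under the curve, keeping inhibitory or non-responding curve classes only. Data came from CellTiter-Glo luminescence, normalised per plate to vehicle and empty-well controls, in three adrenocortical carcinoma cell lines. These were treated in 1,536-well plates with library compounds at 11 concentrations and read after 48 h.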

NCI-H295R [2] = assay: AC50 viability; higher = less potent
Method in brief: as §1

CU-ACC1 [3] = assay: area under concentration-response curve (viability) (AUC (a.u.)); higher = less active
Method in brief: as §1

NCI-H295R [4] = assay: as above
Method in brief: as §1

CU-ACC2 = assay: as above
Method in brief: as §1

Structure (SMILES)	AC50 viability (CU-ACC1 [1])	AC50 viability (NCI-H295R [2])	area under concentration-response curve (CU-ACC1 [3])	area under concentration-response curve (NCI-H295R [4])	area under concentration-response curve (CU-ACC2)
CCOC(CN1C(=O)[C@](CC(=O)Nc2ccc(C)cc2)(NC(=O)Nc2ccc(C)cc2)c2ccccc21)OCC	37.2 µM	29.5 µM	432	537	–
C[C@@H](NCCCc1cccc(C(F)(F)F)c1)c1cccc2ccccc12	10.5 µM	13.2 µM	467	501	–
Cc1ccc(F)c(NC(=O)Nc2ccc(-c3cccc4[nH]nc(N)c34)cc2)c1	18.6 µM	26.3 µM	497	506	–
COc1cc(C(=O)NC2CCN(C)CC2)ccc1Nc1ncc2c(n1)N(C1CCCC1)CCC(=O)N2C(C)C	26.3 µM	23.5 µM	504	538	–
C[S+](=O)([O-])c1ccc([C@@H](CC2CCCC2)C(=O)Nc2nccs2)cc1	18.6 µM	16.6 µM	379	393	–
COc1ccc(Cl)c(Nc2ncnc3cc(OCC4CCN(C)CC4)c(OC)cc23)c1	23.5 µM	26.3 µM	513	581	–
CC[C@H](C)[N]1C=C(C)C2=C1C=C(C=C2C(=O)NC\C3=C(C)\C=C(\C)NC3=O)C4=CC=C(N=C4)N5CCNCC5	18.6 µM	23.5 µM	449	493	–
Clc1cc(Cl)cc(CNc2ncncc2-c2ccc3c(c2)OCO3)c1	14.8 µM	13.2 µM	412	430	–
Cc1c(C(=O)Nc2ccc(N3C[C@@H](C)O[C@@H](C)C3)nc2)cccc1-c1ccc(OC(F)(F)F)cc1	18.6 µM	20.9 µM	519	572	–
CCN1CCC(n2cc(CNc3cc(Cl)c4ncc(C#N)c(Nc5ccc(F)c(Cl)c5)c4c3)nn2)CC1	16.6 µM	23.5 µM	456	494	–
O=C1Nc2ccc(Cl)cc2[C@@](C#CC2CC2)(C(F)(F)F)O1	29.5 µM	20.9 µM	471	504	–
C[C@@H]\1COC(=N1)\NC2=CC3=C(C=C2)N=CN=C3NC4=CC(=C(OCC5=NC=CS5)C=C4)Cl	20.9 µM	41.7 µM	509	522	–
CN[C@@H]1C[C@H]2O[C@@](C)([C@@H]1OC)n1c3ccccc3c3c4c(c5c6ccccc6n2c5c31)C(=O)NC4	0.833 µM	–	385	346	359
Nc1ccc(F)cc1NC(=O)c1ccc(CNC(=O)/C=C/c2cccnc2)cc1	9.34 µM	8.33 µM	341	433	–
CCCn1c(=O)c2[nH]c(C34CC5CC3C[C@@H](C5)C4)nc2n(CCC)c1=O	26.3 µM	–	435	489	524
CN[S+]([O-])(=O)NC1=NC=CC(=C1F)CC/2=C(C)/C3=CC=C(OC4=NC=CC=N4)C=C3OC2=O	7.42 µM	–	441	577	611
Cc1[nH]c2ccc(F)cc2c1-c1nc2c3cccnc3c3ncccc3c2[nH]1	1.52 µM	–	326	424	498
COC(=O)N1CCN(Cc2cccc(NC(=O)Nc3ccc(C)nc3)c2F)CC1	74.2 µM	–	486	573	601
Cc1cc(OCCC[S+](C)(=O)[O-])cc(C)c1-c1cccc(COc2ccc3c(c2)OC[C@H]3CC(=O)O)c1	20.9 µM	–	425	491	528
OC[C@H](Cc1ccccc1)Nc1nc(Oc2ccc3c(c2)CCC3)nc2c1ncn2Cc1ccc(-c2ccccc2)cc1	14.8 µM	–	430	477	524
O=C1CCc2cc(OCCCCc3nnnn3C3CCCCC3)ccc2N1	18.6 µM	–	468	531	579
Cc1cccc(CC(=O)N2CCc3c2ccc(-c2cn(C)c4ncnc(N)c24)c3F)n1	4.68 µM	–	487	551	644

Structure (SMILES)	AC50 viability (CU-ACC1 [1])	AC50 viability (NCI-H295R [2])	area under concentration-response curve (CU-ACC1 [3])	area under concentration-response curve (NCI-H295R [4])	area under concentration-response curve (CU-ACC2)
CC(C)(C)OC(=O)Nc1ccc(-c2cc(C(=O)NCCCCCCC(=O)NO)no2)cc1	14.8 µM	–	479	564	598
Cc1ccc(N[S+](=O)([O-])c2cccc(C#N)c2)c2[nH]cc(C#N)c12	0.833 µM	–	451	489	576
CC(C)n1c(/C=C/[C@H](O)C[C@H](O)CC(=O)O)c(-c2ccc(F)cc2)c2ccccc21	10.5 µM	–	506	567	617
O=C(NOCCO)c1ccc2cncn2c1Nc1ccc(I)cc1F	14.8 µM	–	461	549	598
FC1=C(C=C(C/C2=N/NC(=O)C3=C2C=CC=C3)C=C1)C(=O)N4CCN(CC4)C(=O)C5CC5	10.5 µM	–	456	434	464
Fc1ccc(CNc2ncnc3ccc(F)cc23)cc1	2.35 µM	–	415	509	577
CNC(=O)c1cc(Oc2ccc3nc(N[C@@H]4CCCC[C@H]4O)sc3c2)ccn1	20.9 µM	–	481	548	583
CC(C)CC(=O)Nc1n[nH]c2c1CN(C(=O)C1CCN(C)CC1)C2(C)C	16.6 µM	–	514	562	574
Cc1cc(-c2ncc(CC(=O)Nc3ccc(-c4cnccn4)cn3)cc2C)ccn1	7.42 µM	–	429	500	597
O=C(Nc1ccccc1Br)N[C@@H]1CCN(c2ccc(C(F)(F)F)cn2)C1	20.9 µM	–	477	539	575
COc1ccc(Cn2ccc3ccc(C(=O)NO)cc32)cc1	23.5 µM	–	524	582	625
COc1nnc2ccc(N3CCC(c4ccc(OCCN5CCN(C)C(=O)[C@H]5C)cc4)CC3)nn12	0.263 µM	–	468	474	449
O=C(O)c1nn(Cc2ccc(Cl)cc2Cl)c2ccccc12	1.66 µM	–	442	440	464
FC1=CC=C(SC/2=N/N3\C=N/C(=O)/C(=C3/C=C2)C4=C(Cl)C=CC=C4Cl)C(=C1)F	0.0372 µM	–	453	541	562
Cn1c(=O)c2c(ncn2CC2OCCO2)n(C)c1=O	0.00235 µM	–	294	452	375
c1ccc2c(-c3cnn4cc(-c5ccc(OCCN6CCOCC6)cc5)cnc34)ccnc2c1	4.56 µM	–	395	568	637
C=CC(=O)N1CCC(C2CCNc3c(C(N)=O)c(-c4ccc(Oc5ccccc5)cc4)nn32)CC1 (stereo not given)	16.6 µM	–	492	553	614
O=C(NC[C@H](O)CO)c1ccncc1Nc1ccc(I)cc1F	11.8 µM	–	397	537	506
CC(C)c1noc(N2CCC(COc3ccc(-c4ccc([S+](C)(=O)[O-])cc4)nc3)CC2)n1	8.33 µM	–	419	496	583
Cc1nc2cnc3ccc(C#Cc4cccnc4)cc3c2n1-c1ccc(C(C)(C)C#N)cc1	0.661 µM	–	402	492	557
Cn1cnc2c(F)c(Nc3ccc(Br)cc3F)c(C(=O)NOCCO)cc21	0.0332 µM	–	242	159	145
CC(C)(C)NC(=O)Nc1cccc(Nc2ncc(F)c(NC(C)(C)CO)n2)c1	23.5 µM	–	525	571	652

Structure (SMILES)	AC50 viability (CU-ACC1 [1])	AC50 viability (NCI-H295R [2])	area under concentration-response curve (CU-ACC1 [3])	area under concentration-response curve (NCI-H295R [4])	area under concentration-response curve (CU-ACC2)
CN(C)C(=O)[C@H](O)[C@H](Cc1ccccc1)NC(=O)c1cc2cc(Cl)ccc2[nH]1	0.0118 µM	–	364	444	420
CCOCOC[C@H](C[C@H](C)C(=O)NO)NC(=O)c1ccc(Oc2ccccc2)cc1	23.5 µM	–	512	595	636
CC(=O)[C@]1(N)Cc2c(O)c3c(c(O)c2[C@@H](O[C@H]2C[C@H](O)[C@H](O)CO2)C1)C(=O)c1ccccc1C3=O	16.6 µM	–	474	534	487
Cc1c(C(=O)N2CCOc3ccc(-c4ccc(N)nc4)cc3C2)ccc([S+](C)(=O)[O-])c1F	8.33 µM	–	428	473	516
[O-]C(=O)C1=C(C(=C(Cl)C(=C1Cl)Cl)Cl)C/2=C/3\C=C(I)/C(=O)/C(=C3OC4=C2C=C(I)C(=C4I)[O-])I	13.2 µM	–	421	417	434
COc1ccc(Cc2nccc3cc(OC)c(OC)cc23)cc1OC	6.61 µM	–	384	533	583
CC#C[C@@H](CC(=O)O)c1ccc(OCc2cccc(-c3ccc(C(F)(F)F)cc3)c2)cc1	1.48 µM	–	406	411	506
Nc1nccc(-c2c(-c3ccc(F)cc3)ncn2C2CCCCC2)n1	14.8 µM	–	480	556	621
CCNC(=O)c1noc(-c2cc(C(C)C)c(O)cc2O)c1-c1ccc(CN2CCOCC2)cc1	0.0118 µM	–	226	198	114
CC[C@H](C)C(=O)O[C@H]1CC\C=C2\C=C/[C@H](C)[C@H](CC[C@@H]3C[C@@H](O)CC(=O)O3)[C@@H]12	14.8 µM	–	426	484	415
CCC(=O)N[C@H]1CC[C@H](C(=O)N(C)c2ccc(-c3nc4ccccc4o3)cc2)C1	23.5 µM	–	548	555	661
COC1CCN(CC1)C(=O)C2=CC(=CC=C2F)CC/3=N/NC(=O)C4=CC=CC=C34	0.209 µM	–	441	423	457
CN(NC(=O)CC(=O)NN(C)C(=S)c1ccccc1)C(=S)c1ccccc1	3.72 µM	–	402	521	567
COc1ccc2cc3[n+](cc2c1OC)CCc1cc2c(cc1-3)OCO2	4.68 µM	–	444	557	573
CCN(CC)CCCC[C@H](NC(=O)[C@H](CC(C)C)NC(=O)[C@H](C)NC(=O)[C@H](Cc1ccccc1)NC(=O)c1ccc(C(C)(C)C)cc1)C(=O)N[C@@H](CO)C(=O)OC	0.0132 µM	–	446	421	424
S=C(NCc1ccc2c(c1)OCO2)N1CCN(c2ncnc3c2oc2ccccc23)CC1	2.95 µM	–	383	483	567
C[C@@H]1CC[C@@]2(CC[C@]3(C)\C(=C/C[C@@H]4[C@@]5(C)CC[C@H](O)C(C)(C)[C@@H]5CC[C@@]34C)[C@@H]2[C@H]1C)C(O)=O	9.34 µM	–	402	419	441
O=C1c2cccc(O)c2C(=O)c2c(O)cc(CO)cc21	10.5 µM	–	508	575	656
N[S+](=O)([O-])c1ccc(NC(=S)N2CCN(C/C=C/c3ccccc3)CC2)cc1	20.9 µM	–	494	523	583
CCc1c(C(=O)NNC(=O)[C@@H](O)c2cc(F)cc(F)c2)ccc(O)c1C	26.3 µM	–	387	441	492
CC1=C(C)C\2=C(S1)[N]3C(=NN=C3C(CC(=O)NC4=CC=C(O)C=C4)\N=C2C5=CC=C(Cl)C=C5)C (stereo not given)	2.63 µM	–	458	527	549
